The values that follow come from patent publication US6444816B1, “Fused 7-oxo-pyrimidinyl compounds, preparation, composition and use thereof” (Dr. Reddy's Research Foundation, priority 1997, dated 2002).

Data set [1] relates to Swiss albino mice. Kind of data set: Triglyceride lowering activity in Swiss albino mice. The settings on record: 3 mg/kg/day oral for 6 days. It is filed as in vivo. The protocol: Male Swiss albino mice (SAM) were obtained from NIN and housed in DRF animal house. All these animals were maintained under 12 hour light and dark cycle at 25±1° C. Animals were given standard laboratory chow SIN, Hyderabad, India) and water, ad libitun. SAM of 20-25 g body weight range and Guinea pigs of 500-700 g body weight range were used (Oliver, P., Plancke, M. O., Marzin, D., Clavey, V., Sauzieres, J and Fruchart, J. C. Effects of fenofibrate, gemfibrozil and nicotinic acid on plasma lipoprotein levels in normal and hyperlipidemic mice. Atherosclerosis. 1988. 70:107-114).
The test compounds were administered orally to Swiss albino mice at 0.3 to 30 mg/kg/day dose for 6 days. Control mice were treated with vehicle (0.25% Carboxymethylcellulose; dose 10 ml/kg). The test compounds were administered orally to Guinea pigs at 0.3 to 30 mg/kg/day dose for 6 days. Control animals were treated with vehicle (0.25% Carboxymethylcellulose; dose 5 ml/kg).
The blood samples were collected in fed state 1 hour after drug administration on 0 and 6 day of treatment. The blood was collected from the retro-orbital sinus through heparinised capillary in EDTA containing tubes. After centrifugation, plasma sample was separated for triglyceride and total cholesterol (Wieland, O. Methods of Enzymatic analysis. Bergermeyer, H. O., Ed., 1963. 211-214; Trinder, P. Ann. Clin. Biochem. 1969. 6: 24-27). Measurement of plasma triglyceride, total cholesterol and HDL were done using commercial kits (Dr. Reddy's Diagnostic Division, Hyderabad, India).
(§1) 1. Percent reduction in Blood sugar/triglycerides/total cholesterol were calculated according to the formula: [formula]

For data set [2], the target named is T1, hPPARα (Homo sapiens, UniProt Q07869).
T1 construct: expressed in transfected cells; host or cells: HEK-293
T1 sequence (Q07869 239-466 limits assumed): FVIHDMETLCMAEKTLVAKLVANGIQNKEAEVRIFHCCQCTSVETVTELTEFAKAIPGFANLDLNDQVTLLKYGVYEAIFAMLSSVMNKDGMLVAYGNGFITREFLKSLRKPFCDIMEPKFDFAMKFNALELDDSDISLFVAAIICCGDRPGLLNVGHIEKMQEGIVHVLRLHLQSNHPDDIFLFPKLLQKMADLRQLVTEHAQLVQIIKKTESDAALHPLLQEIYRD
Kind of data set: Determination of hPPARα activity (GAL4 luciferase reporter transactivation in HEK-293 cells). The settings on record: compound at 50 μM, HEK-293 cells transfected with GAL4-hPPARα LBD. It is filed as cell-based. On the procedure: Ligand binding domain of hPPARα was fused to DNA binding domain of Yeast transcription factor GAL4 in eucaryotic expression vector. Using superfect (Qiagen, Germany) as transfecting reagent HEK-293 cells were transfected with this plasmid and a reporter plasmid harboring the luciferase gene driven by a GAL4 specific promoter. Compound was added at different concentrations after 42 hrs of transfection and incubated overnight. Luciferase activity as a function of compound binding/activation capacity of PPARα was measured using Packard Luclite kit (Packard, USA) in Top Count (Ivan Sadowski, Brendan Bell, Peter Broag and Melvyn Hollis. Gene. 1992. 118: 137-141; Superfect Transfection Reagent Handbook. February 1997. Qiagen, Germany).
Background: In a reporter assay the amount or activity of a reporter protein is the signal.

For data set [3], the system named is C57BL/KsJ-db/db mice. Kind of data set: Blood glucose and triglyceride lowering activity in db/db mice. It is filed as in vivo. The settings on record: 3 mg/kg oral gavage daily for 6 days, plasma 1 h after dose on day 6.
Source text: Mutation in colonies of laboratory animals and different sensitivities to dietary regimens have made the development of animal models with non-insulin dependent diabetes and hyperlipidemia associated with obesity and insulin resistance possible. Genetic models such as db/db and ob/ob (Diabetes, (1982) 31(1): 1-6) mice and zucker fa/fa rats have been developed by the various laboratories for understanding the pathophysiology of disease and testing the efficacy of new antidiabetic compounds (Diabetes, (1983) 32: 830-838; Annu. Rep. Sankyo Res. Lab. (1994). 46: 1-57). The homozygous animals, C57 BL/KsJ-db/db mice developed by Jackson Laboratory, US, are obese, hyperglycemic, hyperinsulinemic and insulin resistant (J. Clin. Invest., (1990) 85: 962-967), whereas heterozygous are lean and normoglycemic. In db/db model, mouse progressively develops insulinopenia with age, a feature commonly observed in late stages of human type II diabetes when blood sugar levels are insufficiently controlled. The state of pancreas and its course vary according to the models. Since this model resembles that of type II diabetes mellitus, the compounds of the present invention were tested for blood sugar and triglycerides lowering activities.
Male C57BL/KsJ-db/db mice of 8 to 14 weeks age, having body weight range of 35 to 60 grams, bred at Dr. Reddy's Research Foundation (DRF) animal house, were used in the experiment. The mice were provided with standard feed (National Institute of Nutrition (NIN), Hyderabad, India) and acidified water, ad libitum. The animals having more than 350 mg/dl blood sugar were used for testing. The number of animals in each group was 4.
Test compounds were suspended on 0.25% carboxymethyl cellulose and administered to test group at a dose of 0.001 mg to 30 mg/kg through oral gavage daily for 6 days. The control group received vehicle (dose 10 ml/kg). On 6th day the blood samples were collected one hour after administration of test compounds/vehicle for assessing the biological activity.
The random blood sugar and triglyceride levels were measured by collecting blood (100 μl) through orbital sinus, using heparinised capillary in tubes containing EDTA which was centrifuged to obtain plasma. The plasma glucose and triglyceride levels were measured spectrometrically, by glucose oxidase and glycerol-3-PO4 oxidase/peroxidase enzyme (Dr. Reddy's Lab. Diagnostic Division Kits, Hyderabad, India) methods respectively.
The blood sugar and triglycerides lowering activities of the test compound was calculated according to the formula given below.
as §1

Data set [4] concerns the target T2, hPPARγ1 (Homo sapiens, UniProt P37231).
T2 construct: expressed in transfected cells; host or cells: HEK-293
T2 sequence (P37231 238-503 limits assumed): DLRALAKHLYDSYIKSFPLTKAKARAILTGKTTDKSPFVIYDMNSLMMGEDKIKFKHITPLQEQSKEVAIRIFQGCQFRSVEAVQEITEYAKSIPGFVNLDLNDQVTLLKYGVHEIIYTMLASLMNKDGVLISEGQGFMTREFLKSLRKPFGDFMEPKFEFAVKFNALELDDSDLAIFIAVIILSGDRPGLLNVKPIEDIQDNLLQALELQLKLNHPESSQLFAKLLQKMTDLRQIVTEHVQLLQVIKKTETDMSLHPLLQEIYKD
The experiment in a line: Determination of hPPARγ activity (GAL4 luciferase reporter transactivation in HEK-293 cells). It is filed as cell-based. The settings on record: compound at 1 μM, HEK-293 cells transfected with GAL4-hPPARγ1 LBD. On the procedure: Ligand binding domain of hPPARγ1 was fused to DNA binding domain of Yeast transcription factor GAL4 in eucaryotic expression vector. Using lipofectamine (Gibco BRL, USA) as transfecting reagent HEK-293 cells were transfected with this plasmid and a reporter plasmid harboring the luciferase gene driven by a GAL4 specific promoter. Compound was added at 1 μM concentration after 48 hrs of transfection and incubated overnight. Luciferase activity as a function of drug binding/activation capacity of PPARγ1 was measured using Packard Luclite kit (Packard, USA) in Packard Top Count (Ivan Sadowski, Brendan Bell, Peter Broag and Melvyn Hollis. Gene. 1992. 118: 137-141; Guide to Eukaryotic Transfections with Cationic Lipid Reagents. Life Technologies, GIBCO BRL, USA).

For data set [5], the system named is hypercholesterolemic male Sprague Dawley rats. The experiment in a line: Cholesterol lowering activity in hypercholesterolemic male Sprague Dawley rats. It is filed as in vivo. The settings on record: 3 mg/kg/day oral for 3 days. On the procedure: Male Sprague Dawley rats (NIN stock) were bred in DRF animal house. Animals were maintained under 12 hour light and dark cycle at 25±1° C. Rats of 180-200 gram body weight range were used for the experiment. Animals were made hypercholesterolemic by feeding 2% cholesterol and 1% sodium cholate mixed with standard laboratory chow [National Institute of Nutrition (NMN), Hyderabad, India] for 6 days. Throughout the experimental period the animals were maintained on the same diet (Petit, D., Bonnefis, M. T., Rey, C and Infante, R. Effects of ciprofibrate on liver lipids and lipoprotein synthesis in normo- and hyperlipidemic rats. Atherosclerosis. 1988. 74: 215-225).
The test compounds were administered orally at a dose 0.1 to 30 mg/kg/day for 3 days. Control group was treated with vehicle alone (0.25% Carboxymethylcellulose; dose 10 ml/kg).
The blood samples were collected in fed state 1 hour after drug administration on 0 and 3 day of compound treatment. The blood was collected from the retro-orbital sinus through heparinised capillary in EDTA containing tubes. After centrifugation, plasma sample was separated for total cholesterol, HDL and triglyceride estimations. Measurement of plasma triglyceride, total cholesterol and HDL were done using commercial kits (Dr. Reddy's Laboratory, Diagnostic Division, India). LDL and VLDL cholesterol were calculated from the data obtained for total cholesterol, HDL and triglyceride. The reduction of various parameters examined are calculated according to the formula given below.
as §1
2. LDL and VLDL cholesterol levels were calculated according to the formula: [formula]
VLDL cholesterol in mg/dl=[Total cholesterol−HDL cholesterol−LDL cholesterol] mg/dl.

As for `CCCc1nn(C)c2c(=O)n(CCOc3ccc(CC(OCC)C(=O)OCC)cc3)c(CCC)nc12` (stereo not shown) [Example 13, Ethyl 3-[4-[2-(3,5-Dipropyl-1-methyl-7-oxo-6,7-dihydro-1H-pyrazolo[4,3-d]pyrimidin-6-yl)ethoxy]phenyl]-2-ethoxypropanoate], the “Triglyceride (%)↓” value in data set [1] was 25%.
For the molecule `CCCc1nn(C)c2c(=O)n(CCOc3ccc(CC(OCC)C(=O)O)cc3)c(C)nc12` (stereo not shown) [Example 4, 3-[4-[2-(1,5-Dimethyl-7-oxo-3-propyl-6,7-dihydro-1H-pyrazolo[4,3-d]pyrimidin-6-yl)ethoxy]phenyl]-2-ethoxypropanoic Acid], in data set [2], the PPARα activity was 8.32. Moreover, in data set [3], the “Reduction in Blood Glucose Level (%)” value is on record as 42% and the “Triglyceride Lowering (%)” value was found to be 17%. This molecule also registered a PPARγ activity in data set [4] of 14.6. Moreover, in data set [1], the “Triglyceride (%)↓” value was 66%.
Take `CCCc1nn(C)c2c(=O)n(CCOc3ccc(CC(Oc4ccccc4)C(=O)O)cc3)c(CC)nc12` (stereo not shown) [Example 10, 3-[4-[2-(5-Ethyl-1-methyl-7-oxo-3-propyl-6,7-dihydro-1H-pyrazolo[4,3-d]pyrimidin-6-yl)ethoxy]phenyl]-2-phenoxypropanoic Acid]: in data set [3], the “Reduction in Blood Glucose Level (%)” value turned out to be 33% and the “Triglyceride Lowering (%)” value worked out at 35%.
Broadly, the melting point is the temperature of the solid-liquid transition. Molecule `CCCc1nn(C)c2c(=O)n(CCOc3ccc(C[C@@H](OCC)C(=O)N[C@H](CO)c4ccccc4)cc3)c(CC)nc12` [Example 18A, [2R, N(1S)]-2-Ethoxy-3-[4-[2-(5-ethyl-1-methyl-7-oxo-3-propyl-6,7-dihydro-1H-pyrazolo[4,3-d]pyrimidin-6-y]ethoxy]phenyl]-N-(2-hydroxy-1-phenylethyl) Propanamide] displayed a melting point of 138 to 139 °C.
On to `CCCc1nn(C)c2c(=O)n(CCOc3ccc(CC(OCC)C(=O)O)cc3)c(CC)nc12` (stereo not shown) [Example 2], for which, in data set [5], the “HDL ↓” value is recorded as 164, the “Total Cholesterol (%)↓” value was determined as 60% and the “Triglyceride (%)↓” value amounted to 70%. The “LDL (%)↓” value in data set [5] (LDL calculated from total cholesterol, HDL and triglyceride) is recorded as 72%. For the same molecule, in data set [5] (VLDL calculated from total cholesterol, HDL and LDL), the “VLDL (%)↓” value was 71%.
Molecule `CCCc1nn(C)c2c(=O)n(CCOc3ccc(CC(OCC)C(=O)OCC)cc3)c(C)nc12` (stereo not shown) [Example 3, Ethyl 3-[4-[2-(1,5-Dimethyl-7-oxo-3-propyl-6,7-dihydro-1H-pyrazolo[4,3-d]pyrimidin-6-yl)ethoxy]phenyl]-2-ethoxypropanoate] showed a PPARα activity in data set [2] of 6.9. In data set [3], the “Reduction in Blood Glucose Level (%)” value turned out to be 58% and the “Triglyceride Lowering (%)” value was found to be 23%. Further, the PPARγ activity in data set [4] came to 19.0. Also, the “Triglyceride (%)↓” value in data set [1] is given as 61%.
`CCCc1nn(C)c2c(=O)n(CCOc3ccc(CC(OCC)C(=O)OCC)cc3)c(CC)nc12` (stereo not shown) [Example 1]: in data set [2], the PPARα activity is listed as 5.00. This molecule also returned a PPARγ activity in data set [4] of 11.0. Besides, the “Triglyceride (%)↓” value in data set [1] was 45%.
